The values below come from ChEMBL document CHEMBL1201862, “PubChem BioAssay data set” (2004).

Holding throughout (test): NCI anticancer screen, dose series, 48 h
In assay [1] the test system is A549.
The test system of assay [2] is DMS-114.
Assay [3] relates to EKVX.
In assay [4] the test system is HCT-116.
Assay [5] has as its system HCT-15.
The subject of assay [6] is HOP-92.
The subject of assay [7] is IGROV-1.
Assay [8] concerns M19-MEL.
Assay [9] concerns MOLT-4.
Assay [10] deals with NCI-H460.
The test system of assay [11] is NCI-H522.
Assay [12] concerns OVCAR-4.
For assay [13], the system named is SK-MEL-2.
Assay [14] concerns SK-MEL-5.
For assay [15], the system named is SNB-19.
For assay [16], the system named is SNB-78.
In assay [17] the test system is SR.

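In this assay, cells in 96-well plates receive the compound at five concentrations for 48 hours. Endpoints are linearly interpolated between the surrounding concentrations. The concentration for 50% growth inhibition is given as GI50.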 Activity calls are given as the source filed them. Rule as the data show it: active = GI50 up to about 1.1 µM and inactive = higher. A value given as a limit tells only on which side of the number the result lay.

Regarding `NC(=O)C12C3C4C1C1C2C3C41C(N)=O` (stereo not given), the GI50 was > 100 µM (inactive) in assay [1]; > 100 µM (inactive) in assay [2]; > 100 µM (inactive) in assay [3]; > 100 µM (inactive) in [4]; over 100 µM in [5]; > 100 µM (inactive) in assay [6]. Further, the GI50 in assay [7], in assay [8], in assay [9], in [10], in [11] and in [12] was > 100 µM (inactive) throughout. For the same compound, the GI50 in [13], in [14] and in [15] was > 100 µM (inactive) in each case.

As for `CCOC(=O)C(=Cc1cc(OC)ccc1OC)C(=O)OCC`, the GI50 in assay [1] was 6.3 µM (inactive); in assay [2] it was 2.81 µM (inactive); in assay [3], 10.6 µM (inactive); in assay [4], 14.4 µM (inactive); in assay [5] it was 5.71 µM; in assay [6], 3.2 µM (inactive). In addition, the GI50 in assay [7] was 23.8 µM (inactive); in assay [8] it was 4.07 µM (inactive); in assay [9], 5.89 µM (inactive); in assay [10], 30.2 µM (inactive); in assay [11], 3.66 µM (inactive); in assay [12], 7.89 µM (inactive). Further, the GI50 in assay [13] is 4.75 µM (inactive); in assay [14], 4.16 µM (inactive); in assay [15], 11.9 µM (inactive).

Regarding `CC(=O)NS(=O)(=O)c1ccc(NC(=O)COC(=O)c2cccc3c(=O)c4ccccc4[nH]c23)cc1`, the GI50 in assay [1] is > 100 µM (inactive); in assay [2], > 100 µM (inactive); in assay [3], > 100 µM (inactive); in [4], > 100 µM (inactive); in [5], over 100 µM; in assay [7] it was > 100 µM (inactive). In addition, the GI50 in assay [8], in [9], in [10], in assay [11], in assay [13] and in assay [14] was > 100 µM (inactive) in each case. For the same compound, the GI50 in assay [15] was > 100 µM (inactive).

As to `COc1ccccc1NC(=O)CC(=O)NNCC(=O)Nc1nc(-c2ccccc2)cs1`, the GI50 in assay [1], in [2], in [3], in assay [4], in assay [7] and in [8] was > 100 µM (inactive) throughout. Besides, the GI50 in assay [9], in assay [10], in assay [11], in assay [12], in [14] and in assay [15] was > 100 µM (inactive) in each case. Besides, the GI50 in assay [16] was > 100 µM (inactive).

Turning to `CCCCNc1nc(C#N)c(N)s1`, the GI50 is > 100 µM (inactive) in assay [1]; > 100 µM (inactive) in assay [4]; over 100 µM in assay [5]; > 100 µM (inactive) in [6]; > 100 µM (inactive) in assay [7]; > 100 µM (inactive) in [9]. In addition, the GI50 in [10], in assay [11], in assay [12], in assay [13], in assay [15] and in [16] was > 100 µM (inactive) in each case. Also, the GI50 in [17] was > 100 µM (inactive).

As to `Cc1nc2ccccc2c(=O)n1/N=C(\N=N\c1ccc(Cl)cc1)c1cccc(-c2ccco2)c1`, the GI50 in assay [1] is 40.6 µM (inactive); in [3], 51.8 µM (inactive); in assay [4], 19.1 µM (inactive); in [5], 30.2 µM; in [6], 16.1 µM (inactive); in [7], 31.3 µM (inactive). The GI50 is 34.1 µM (inactive) in assay [8]; 22.4 µM (inactive) in assay [9]; 37.7 µM (inactive) in [10]; 17.7 µM (inactive) in [11]; 18.9 µM (inactive) in assay [14].
